According to US10407467B2, “Polymyxin derivatives and their use in combination therapy together with different antibiotics” (priority 2013, dated 2019):
Bridge positions count the residues as written; N and C are the ends. Square brackets hold non-standard residues; d marks the D form. Peptide text beside a SMILES is read from it. ξ: configuration not given here. Thr(3ξ) = CC(O)[C@H](N)C(=O)O; Dab = NCC[C@H](N)C(=O)O; GABA = NCCCC(=O)O

How the values were obtained:
[1] = system: Pseudomonas aeruginosa; experiment: MIC, sole activity (no second agent); assay type: cell-based
In short: (§1)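 First, isolated colonies grown 18-24 hours on Mueller-Hinton agar were suspended to 0.5 McFarland; next, up to four strains per pathogen were tested in duplicate in cation-adjusted MHB; finally, the lower concordant value or modal repeat value was reported against Polymyxin B.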

[2] = system: Acinetobacter baumannii; experiment: MIC, sole activity (no second agent); assay type: cell-based; details: Second Agent none (Table 7B, by row order)
In short: as §1

[3] = system: Klebsiella pneumoniae; experiment: MIC, sole activity (no second agent); assay type: cell-based
In short: as §1

[4] = system: Escherichia coli; experiment: MIC, sole activity (no second agent); assay type: cell-based
In short: as §1

[5] = system: HK-2 cell line; experiment: In vitro renal cell toxicity assay (resazurin reduction); assay type: cell-based, human; details: HK-2 cells, 24 h, resazurin reduction; mean values of up to 6 independent studies
[6] = system: Pseudomonas aeruginosa; experiment: MIC, compound in combination with a second agent (broth microdilution); assay type: cell-based
In short: (§2)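 MIC = combined concentration of test compound plus partner agent, mixed at equal mass (1:1 w/w, salt form as used). Up to four strains per species; colonies adjusted to 0.5 McFarland. Run in duplicate; >2-fold disagreement invalidates the run.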

[7] = system: Acinetobacter baumannii; experiment: as above; assay type: cell-based
In short: as §2

[8] = system: Klebsiella pneumoniae; experiment: as above; assay type: cell-based
In short: as §2

[9] = system: Escherichia coli; experiment: as above; assay type: cell-based
In short: as §2

[10] = system: Klebsiella pneumoniae ATCC10031
Experimental: At 1 h, the CFU count was determined from 5 mice and the remaining mice (five per group) were treated with a subcutaneous injection of the drug at +1 and 6 hr post-infection.
Twenty-four hours after infection, the mice were euthanized humanely. The muscle of the right thigh of each animal was harvested, homogenized, serially diluted and plated on Brain Heart Infusion agar+0.5% charcoal (w/v) for CFU determination. Decrease of the total CFU of right thigh as compared to control counts at 24 h post-infection was determined for each dose group.

[11] = rats, 8 mg/kg BID regimen, seven days, compared to Colistin at the same dose regimen
Experimental: After one week acclimatisation, male Sprague-Dawley rats were surgically prepared with a jugular cannula and were housed individually, as required, either in pre-assigned housing cages or metabolic cages. Colistin and the Example Compounds were prepared in saline.
Compounds were introduced via the jugular cannula twice a day 7 hours apart for seven days. Each dose was increased progressively for three days up to the top dose that was then administered until termination of the study. Twenty-four hour urine collection (on ice) was performed at pre-dose and on days 4 and 7. The dose regimen is set out in Table 10 below.
The doses in the table are indicated in mg drug base/kg (free base).
The activity in urine of the N-acetyl-beta-D-glucosaminidase (NAG) was determined spectrophotometrically using the NAG assay kit from Roche Applied Science. Biomarkers of kidney injury were determined using the Kidney Injury Panel II from the Multi-Spot® Assay System (Meso Scale Discovery).

[12] = Second Agent none (Table 7B, by row order)
[13] = 1:1 combination with Ciprofloxacin (by row order), total drug concentration
[14] = 1:1 combination with Tigecycline, total drug concentration
[15] = 1:1 (wt:wt) combination with Rifampicin, MIC = total drug concentration, strain ATCC-BAA-2146
[16] = 1:1 (wt:wt) combination with Rifampicin, MIC = total drug concentration, strain CCUG-59348
[17] = 1:1 (wt:wt) combination with Rifampicin, MIC = total drug concentration, strain NCTC 13438
[18] = 1:1 combination with Ciprofloxacin, total drug concentration
[19] = 1:1 combination with Vancomycin, total drug concentration
[20] = Ratio of Compound to Rifampicin 1:1, total drug concentration
[21] = Ratio of Compound to Rifampicin 1:3, total drug concentration
[22] = Ratio of Compound to Rifampicin 3:1, total drug concentration

Compound: Colistin [reference compound]
- MIC P. aeruginosa CCUG 59626 ([1]; P. aeruginosa CCUG 59626, second agent none): 0.5 micrograms/mL
- MIC P. aeruginosa ATCC 27853 [1, 12]: 0.25 micrograms/mL
- MIC P. aeruginosa CCUG 59626 [1, 12]: 0.5 micrograms/mL
- MIC P. aeruginosa CCUG 59626 ([1]; Second Agent none (Table 7C)): 0.5 micrograms/mL
- MIC A. baumannii NCTC 13424 [2]: 0.5 micrograms/mL
- MIC K. pneumoniae ATCC BAA-1706 ([3]; K. pneumoniae ATCC BAA-1706, second agent none): 2 micrograms/mL
- MIC K. pneumoniae CCUG 59348 ([3]; K. pneumoniae CCUG 59348, second agent none): 32 micrograms/mL
- MIC K. pneumoniae NCTC 13442 ([3]; K. pneumoniae NCTC 13442, second agent none): 2 micrograms/mL
- MIC K. pneumoniae CCUG 59348 ([3]; Second Agent none (Table 7A)): 32 microgram/mL
- MIC K. pneumoniae CCUG 59626 ([3]; Second Agent none (Table 7A)): 0.5 microgram/mL
- MIC K. pneumoniae NCTC 13442 ([3]; Second Agent none (Table 7A)): 2 microgram/mL
- MIC K. pneumoniae CCUG 59348 ([3]; Second Agent none (Table 7B)): 32 micrograms/mL
- MIC K. pneumoniae NCTC 13442 ([3]; Second Agent none (Table 7B)): 2 micrograms/mL
- MIC K. pneumoniae ATCC 4352 [3, 12]: 0.5 micrograms/mL
- MIC K. pneumoniae ATCC BAA-1706 [3, 12]: 2 micrograms/mL
- MIC K. pneumoniae CCUG 59348 ([3]; Second Agent none (Table 7C)): 32 micrograms/mL
- MIC K. pneumoniae NCTC 13442 ([3]; Second Agent none (Table 7C)): 2 micrograms/mL
- MIC E. coli NCTC9001 ([4]; E. coli NCTC9001, second agent none): 1 micrograms/mL
- MIC E. coli NCTC9001 ([4]; Second Agent none (Table 7A)): 1 microgram/mL
- MIC E. coli ATCC25922 ([4]; Second Agent none (Table 7B)): 1 micrograms/mL
- MIC E. coli CCUG 59342 ([4]; Second Agent none (Table 7B)): 0.5 micrograms/mL
- MIC E. coli NCTC9001 ([4]; Second Agent none (Table 7B)): 2 micrograms/mL
- MIC E. coli NCTC9001 ([4]; Second Agent none (Table 7C)): 1 micrograms/mL
- IC50 HK-2 cells [5]: 28 µg/mL
- MIC P. aeruginosa ATCC 27853 ([6]; 1:1 (wt:wt) combination with Rifampicin, MIC = total drug concentration, strain ATCC 27853): 0.25 micrograms/mL
- MIC P. aeruginosa ATCC CRM-9027 ([6]; 1:1 (wt:wt) combination with Rifampicin, MIC = total drug concentration, strain ATCC CRM-9027): 1 micrograms/mL
- MIC P. aeruginosa ATCC-47 ([6]; 1:1 (wt:wt) combination with Rifampicin, MIC = total drug concentration, strain ATCC-47): 2 micrograms/mL
- MIC P. aeruginosa CCUG 59626 ([6]; 1:1 (wt:wt) combination with Rifampicin, MIC = total drug concentration, strain CCUG 59626): 0.5 micrograms/mL
- MIC P. aeruginosa ATCC 27853 [6, 13]: 0.125 micrograms/mL
- MIC P. aeruginosa CCUG 59626 [6, 13]: 1 micrograms/mL
- MIC P. aeruginosa CCUG 59626 [6, 14]: 1 micrograms/mL
- MIC P. aeruginosa CCUG 59626 ([6]; P. aeruginosa CCUG 59626, 1:1 combination with Meropenem, total drug concentration): 1 micrograms/mL
- MIC A. baumannii ATCC BAA-747 ([7]; 1:1 (wt:wt) combination with Rifampicin, MIC = total drug concentration, strain ATCC BAA-747): 0.25 micrograms/mL
- MIC A. baumannii CCUG57249 ([7]; 1:1 (wt:wt) combination with Rifampicin, MIC = total drug concentration, strain CCUG57249): 0.25 micrograms/mL
- MIC A. baumannii NCTC 13423 ([7]; 1:1 (wt:wt) combination with Rifampicin, MIC = total drug concentration, strain NCTC 13423): 0.125 micrograms/mL
- MIC A. baumannii NCTC 13424 ([7]; 1:1 (wt:wt) combination with Rifampicin, MIC = total drug concentration, strain NCTC 13424): 0.25 micrograms/mL
- MIC A. baumannii NCTC 13424 [7, 13]: 0.5 micrograms/mL
- MIC K. pneumoniae ATCC 4352 ([8]; 1:1 (wt:wt) combination with Rifampicin, MIC = total drug concentration, strain ATCC 4352): 0.5 micrograms/mL
- MIC K. pneumoniae ATCC-BAA-2146 [8, 15]: 1 micrograms/mL
- MIC K. pneumoniae CCUG-59348 [8, 16]: 1 micrograms/mL
- MIC K. pneumoniae NCTC 13438 [8, 17]: 0.5 micrograms/mL
- MIC K. pneumoniae ATCC 4352 [8, 13]: ≤0.06 micrograms/mL
- MIC K. pneumoniae ATCC BAA-1706 [8, 13]: 1 micrograms/mL
- MIC K. pneumoniae CCUG 59348 [8, 18]: 32 micrograms/mL
- MIC K. pneumoniae NCTC 13442 [8, 18]: 1 micrograms/mL
- MIC K. pneumoniae CCUG 59348 [8, 14]: >32 micrograms/mL
- MIC K. pneumoniae NCTC 13442 [8, 14]: 4 micrograms/mL
- MIC K. pneumoniae CCUG 59348 [8, 19]: >32 microgram/mL
- MIC K. pneumoniae CCUG 59626 [8, 19]: 2 microgram/mL
- MIC K. pneumoniae NCTC 13442 [8, 19]: 8 microgram/mL
- MIC K. pneumoniae ATCC BAA-1706 ([8]; K. pneumoniae ATCC BAA-1706, 1:1 combination with Meropenem, total drug concentration): 4 micrograms/mL
- MIC K. pneumoniae CCUG 59348 ([8]; K. pneumoniae CCUG 59348, 1:1 combination with Meropenem, total drug concentration): >32 micrograms/mL
- MIC K. pneumoniae NCTC 13442 ([8]; K. pneumoniae NCTC 13442, 1:1 combination with Meropenem, total drug concentration): 4 micrograms/mL
- MIC K. pneumoniae ATCC-BAA-2146 [8, 20]: 1 micrograms/mL
- MIC K. pneumoniae CCUG-59348 [8, 20]: 2 micrograms/mL
- MIC K. pneumoniae NCTC 13438 [8, 20]: 2 micrograms/mL
- MIC K. pneumoniae ATCC-BAA-2146 [8, 21]: 4 micrograms/mL
- MIC K. pneumoniae CCUG-59348 [8, 21]: 4 micrograms/mL
- MIC K. pneumoniae NCTC 13438 [8, 21]: 2 micrograms/mL
- MIC K. pneumoniae ATCC-BAA-2146 [8, 22]: 1 micrograms/mL
- MIC K. pneumoniae CCUG-59348 [8, 22]: 1 micrograms/mL
- MIC K. pneumoniae NCTC 13438 [8, 22]: 1 micrograms/mL
- MIC E. coli ATCC25922 ([9]; 1:1 (wt:wt) combination with Rifampicin, MIC = total drug concentration, strain ATCC25922): 0.25 micrograms/mL
- MIC E. coli NCTC9001 ([9]; 1:1 (wt:wt) combination with Rifampicin, MIC = total drug concentration, strain NCTC9001): 0.25 micrograms/mL
- MIC E. coli ATCC25922 [9, 18]: ≤0.06 micrograms/mL
- MIC E. coli CCUG 59342 [9, 18]: 1 micrograms/mL
- MIC E. coli NCTC9001 [9, 18]: ≤0.06 micrograms/mL
- MIC E. coli NCTC9001 [9, 14]: 4 micrograms/mL
- MIC E. coli NCTC9001 [9, 19]: 4 microgram/mL
- MIC E. coli NCTC9001 ([9]; E. coli NCTC9001, 1:1 combination with Meropenem, total drug concentration): 0.25 micrograms/mL
- Mean log10 CFU reduction vs. control ([10]; Total daily dosage 10 mg/Kg (sulfate salt), subcutaneous BID): 2.60 log10 CFU

Compound: CC(C)C[C@@H]1NC(=O)[C@@H](Cc2ccccc2)NC(=O)[C@H](CCN)NC(=O)[C@@H](NC(=O)[C@H](CCN)NC(=O)[C@@H](NC(=O)CCCN)C(C)O)CCNC(=O)[C@H](C(C)O)NC(=O)[C@H](CCN)NC(=O)[C@H](CCN)NC1=O (stereo partly drawn) [Example 4, 4-Aminobutanoyl polymyxin B nonapeptide] (H-[GABA][Thr(3ξ)][Dab][Dab][Dab][dF]L[Dab][Dab][Thr(3ξ)]; lactam 4-C)
- MIC P. aeruginosa ATCC 27853 ([1]; in the absence of Rifampicin, strain ATCC27853): 0.25 micrograms/mL
- MIC P. aeruginosa ATCCCRM-9027 ([1]; in the absence of Rifampicin, strain ATCCCRM-9027): 0.125 micrograms/mL
- MIC K. pneumoniae ATCC 4352 ([3]; in the absence of Rifampicin, strain ATCC 4352): 1 micrograms/mL
- MIC K. pneumoniae ATCC-BAA2146 ([3]; in the absence of Rifampicin, strain ATCC-BAA2146): >32 micrograms/mL
- MIC K. pneumoniae CCUG-59348 ([3]; in the absence of Rifampicin, strain CCUG-59348): >32 micrograms/mL
- MIC K. pneumoniae NCTC-13438 ([3]; in the absence of Rifampicin, strain NCTC-13438): >32 micrograms/mL
- MIC E. coli ATCC25922 ([4]; in the absence of Rifampicin, strain ATCC25922): 2 micrograms/mL
- MIC E. coli NCTC9001 ([4]; in the absence of Rifampicin, strain NCTC9001): 8 micrograms/mL
- MIC K. pneumoniae ATCC-BAA-2146 [8, 15]: 2 micrograms/mL
- MIC K. pneumoniae CCUG-59348 [8, 16]: 16 micrograms/mL
- MIC K. pneumoniae NCTC 13438 [8, 17]: 0.5 micrograms/mL
- reduction in bacterial counts ([10]; 10 mg/kg/day, neutropenic mice thigh infection): approx. 2 log10
- levels of the renal biomarkers NAG, albumin and cystatin C in urine [11]: significantly reduced levels
